Columns and labels:
[1] = tested on: HT-29 cells; test: Annexin-V/propidium iodide apoptosis and necrosis detection; format: cell-based, human; settings: HT-29, 1 µM, 24 h
Protocol: To evaluate the impact of new compounds on apoptosis induction, an annexin-V/propidium iodide staining assay was conducted on HT-29 cells, with doxorubicin serving as the positive control (Figure 4). The tested compounds 5 and 6, at a concentration of 1 µM, increased the number of cells in the apoptosis phase, although to a lesser extent than doxorubicin.
The assessment of cell death—apoptosis was performed after 24 h of incubation of HT-29 cells with a concentration of 1 µM of compounds 5 and 6 and doxorubicin. Fluorescein-conjugated annexin V in PBS with Mg^2+ and Ca^2+ ions (Thermo Fisher Scientific, Waltham, MA, USA) was then used. To ensure that all cells (both live and dead) were counted, 10 µM Hoechst (Sigma-Aldrich, Darmstadt, Germany) was added to stain cell nuclei. The culture was then incubated for 20 min at 37 °C. Apoptosis analysis was performed under a fluorescence microscope (EVOS FL, Thermo Fisher Scientific, Waltham, MA, USA), using 10× magnification, in triplicate for each compound. The open-source ImageJ platform with the Fiji plugin [57] was used to analyze the number of all cells, as well as those in the apoptotic and necrotic phases.
The fluorescence signal was interpreted as follows: green fluorescence indicated apoptotic cells (annexin V staining), red fluorescence corresponded to necrotic cells, and blue fluorescence (Hoechst staining) marked all cell nuclei.

[2] = target: T1, P-glycoprotein (LoVo cells) (Homo sapiens, UniProt P08183); test: Rhodamine-123 accumulation assay in LoVo; format: cell-based; settings: 50 µM, 24 h; versus untreated control
T1 construct: intracellular accumulation of rhodamine 123 (a fluorescent P-gp substrate analog) in P-gp-expressing cell lines (HT-29, LoVo, and LoVo/Dx); endogenous in cells; host or cells: HT-29, LoVo (ECACC via Sigma-Aldrich); LoVo/Dx (doxorubicin-selected subline of LoVo)
T1 sequence (P08183 whole entry): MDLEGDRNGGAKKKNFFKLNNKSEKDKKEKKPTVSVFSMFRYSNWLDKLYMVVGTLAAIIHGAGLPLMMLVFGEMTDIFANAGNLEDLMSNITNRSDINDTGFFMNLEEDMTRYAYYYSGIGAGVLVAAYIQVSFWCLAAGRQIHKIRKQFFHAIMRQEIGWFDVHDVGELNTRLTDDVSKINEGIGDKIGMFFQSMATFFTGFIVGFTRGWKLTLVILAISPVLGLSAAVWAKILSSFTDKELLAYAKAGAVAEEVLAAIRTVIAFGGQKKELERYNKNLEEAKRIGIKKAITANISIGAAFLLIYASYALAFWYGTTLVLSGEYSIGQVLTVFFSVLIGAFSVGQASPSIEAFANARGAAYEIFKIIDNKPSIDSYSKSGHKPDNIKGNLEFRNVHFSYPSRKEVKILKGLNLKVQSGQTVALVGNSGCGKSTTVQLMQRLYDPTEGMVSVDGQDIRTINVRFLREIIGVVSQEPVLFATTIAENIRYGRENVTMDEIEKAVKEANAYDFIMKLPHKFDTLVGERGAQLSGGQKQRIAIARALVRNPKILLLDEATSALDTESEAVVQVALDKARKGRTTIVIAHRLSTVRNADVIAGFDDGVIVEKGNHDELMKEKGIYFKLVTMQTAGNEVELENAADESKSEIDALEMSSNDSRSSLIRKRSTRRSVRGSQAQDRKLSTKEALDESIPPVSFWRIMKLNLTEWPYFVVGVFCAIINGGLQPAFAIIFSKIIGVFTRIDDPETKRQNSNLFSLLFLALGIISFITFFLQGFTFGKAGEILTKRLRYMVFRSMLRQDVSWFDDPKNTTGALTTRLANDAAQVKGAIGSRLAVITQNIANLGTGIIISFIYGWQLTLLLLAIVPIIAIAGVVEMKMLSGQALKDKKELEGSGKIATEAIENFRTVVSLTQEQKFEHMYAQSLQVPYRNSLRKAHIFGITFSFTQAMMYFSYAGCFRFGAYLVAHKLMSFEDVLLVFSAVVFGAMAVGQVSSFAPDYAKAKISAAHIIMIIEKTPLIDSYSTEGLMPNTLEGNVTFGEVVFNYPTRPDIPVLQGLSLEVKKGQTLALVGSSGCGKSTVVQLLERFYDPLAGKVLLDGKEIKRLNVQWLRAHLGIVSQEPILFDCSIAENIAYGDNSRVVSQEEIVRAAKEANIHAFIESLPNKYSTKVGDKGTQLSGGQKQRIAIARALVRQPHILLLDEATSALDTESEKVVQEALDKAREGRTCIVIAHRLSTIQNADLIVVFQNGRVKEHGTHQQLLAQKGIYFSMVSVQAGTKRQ
From the text: This test measured the intracellular accumulation of rhodamine 123 (a fluorescent P-gp substrate analog) in P-gp-expressing cell lines (HT-29, LoVo, and LoVo/Dx). Following accumulation and efflux phases, the fluorescence of rhodamine 123 (Rh-123) was quantified using spectrofluorimetry. The results are illustrated in Figure 3. Verapamil, a calcium channel blocker, served as a positive control for P-gp inhibition due to its well-established ability to inhibit P-gp activity. Verapamil binds to P-gp, inhibiting its function, which increases the intracellular concentration of chemotherapeutic drugs and other P-gp substrates.
The activity was measured for cells treated with a 50 µM concentration of the compounds and drugs in the recommended media for each cell line (without FBS) in a volume of 100 µL for 24 h. In this test, verapamil served as the control. After the incubation period, a 10 mM Rhodamine-123 (Rh-123) solution was prepared in a 1:1 DMSO mixture. […] Fluorescence was measured at 485 nm excitation and 538 nm emission using a Biotek Synergy H1 microplate reader (Agilent Technologies, Inc., Santa Clara, CA, USA). […]
Results are expressed as the mean ± SD (standard deviation) relative to the respective control (E/E0), where E represents the mean result for the measured sample, and E0 represents the mean result for the control. […]

[3] = tested on: EPG cells; test: MTT viability assay, gastric cancer cells; format: cell-based, human; settings: for SI, EPG: CC50 CCD 841 CoTr / CC50 EPG; for CC50: Homo sapiens, MTT, 24 h, read-out: CC50 ± SD, EPG
Protocol: The cytotoxic effects of ten newly synthesized N-Mannich bases were assessed on the normal human intestinal epithelium (CCD 841 CoTr) and cancer cell lines: gastric cancer (EPG) and four colorectal cancer lines (Caco-2, LoVo, LoVo/Dx, and HT-29). Cell viability was evaluated using the MTT assay in accordance with Annex C of ISO 10993-5 [33].
The biological activity of the newly synthesized compounds was assessed in the context of anticancer activity. For this purpose, several gastrointestinal cancer lines were selected: gastric cancer (EPG 257, which belongs to the collection of the Laboratory of Cell Culture and Advanced Therapy at the University of Environmental and Life Sciences in Wrocław), and four colorectal cancer cell lines (LoVo, Caco-2, and HT-29) were obtained from the European Collection of Authenticated Cell Cultures (ECACC) and were delivered by Sigma-Aldrich, a certified distributor for the biobank. Additionally, LoVo cells were used to develop a doxorubicin-resistant subline, referred to as LoVo/Dx. Resistance was induced through gradual adaptation to increasing concentrations of doxorubicin, starting from 0.1 µg/mL and incrementally raised to 0.8 µg/mL. After reaching the maximum concentration, the cells were maintained in a medium containing 0.4 µg/mL doxorubicin for a period of three months to stabilize the resistant phenotype. […] The resulting LoVo/Dx subline, resistant to doxorubicin, was cultured in DMEM/F-12 medium and utilized in assays evaluating the effectiveness of novel compounds against multidrug-resistant cancer cells. […] The non-cancerous cell control was normal colonic epithelial cells (CCD 841 CoTr from American Type Culture Collection, (ATCC, Manassas, VA, USA)). Cell cultures were performed under standard conditions (5% CO2, 95% humidity, and 37 °C). Each cell line was cultured in the recommended medium: (1) HT-29 in McCoy’s 5a, (2) Caco-2 in Minimal Essential Medium (MEM, Biological Industries, Beit Haemek, Israel), (3) CCD 841 CoTr in Dulbecco’s Modified Eagle Medium (DMEM, Biological Industries, Beit Haemek, Israel), (4) LoVo in Dulbecco’s Modified Eagle Medium/F-12 (DMEM/F-12; Biological Industries, Beit Haemek, Israel), (5) LoVo/Dx in DMEM/F-12, and (6) EPG in DMEM. Culture media were supplemented with 10% fetal bovine serum (FBS, Sigma-Aldrich, Darmstadt, Germany) and antibiotics (penicillin and streptomycin; Sigma-Aldrich, Darmstadt, Germany). For assays, trypsinized (TrypLE solution, Thermo Fisher Scientific, Waltham, MA, USA) cells were seeded at appropriate densities of 10,000 cells per well for MTT and determination of apoptotic and necrotic cell numbers; 30,000 cells per well for the rhodamine accumulation assay; and 500,000 cells per well for ELISA tests.
The cytotoxicity of the compounds and drugs used as controls was assessed using the MTT assay. The assay also included a DMSO control. After seeding and allowing the cells to adhere overnight, they were treated with the tested compounds and drugs for another 24 h. After this time, the supernatant was removed, and a 1 mg/mL MTT solution was added for 2 h in 5% CO2, 95% humidity, at 37 °C. The supernatant was then removed, and isopropanol was added to dissolve the purple crystals over 30 min by shaking. Absorbance was measured at 570 nm in a Multiskan GO microplate reader (Thermo Fisher Scientific; Waltham, MA, USA). All reagents used for the assays were purchased from Sigma-Aldrich, Darmstadt, Germany.
Biological assays were performed in three independent replicates, each involving four samples. ELISA determinations were repeated three times.

| SMILES | Increase in apoptotic cells compared to untreated cells [1] [fold] | Number of necrotic cells [1] | Increase of Rh-123 accumulation, LoVo [2] [fold] | SI, EPG [3] | CC50 [3] [µM] |
| --- | --- | --- | --- | --- | --- |
| Cc1cc(C)c(C(=O)NCc2nn(CN3CCN(c4cccc(Cl)c4)CC3)c(=S)n2-c2ccccc2)c(S)n1 [Compound 5, 4,6-dimethyl-N-[(4-phenyl-5-thioxo-2-{[4-(3-chlorophenyl)piperazinyl]methyl}-4,5-dihydro-1H-1,2,4-triazol-3-yl)methyl]-2-sulfanylpyridine-3-carboxamide] | > 3.5 | significant rise | 2.8 | 2.66 | 83 ± 4.6 |
| Cc1ccc(N2CCN(Cn3nc(CNC(=O)c4c(C)cc(C)nc4S)n(-c4ccccc4)c3=S)CC2)cc1 [Compound 6] | ~5 |  | 2.55 | 6.72 | 57.7 ± 5.4 |

From article PMC12294558, “New 1,2,4-Triazole Derivatives with a N-Mannich Base Structure Based on a 4,6-Dimethylpyridine Scaffold as Anticancer Agents: Design, Synthesis, Biological Evaluation, and Molecular Modeling” (International Journal of Molecular Sciences, 2025)
